Data from patent US20230174523A1, “BENZENESULFONAMIDE DERIVATIVES AS TRAP1 MODULATORS AND USES THEREOF” (Amathus Therapeutics, Inc., priority 2020, published 2023).

Target: T1, TRAP1 enzyme (Homo sapiens, UniProt Q12931)
T1 sequence (Q12931 60-704): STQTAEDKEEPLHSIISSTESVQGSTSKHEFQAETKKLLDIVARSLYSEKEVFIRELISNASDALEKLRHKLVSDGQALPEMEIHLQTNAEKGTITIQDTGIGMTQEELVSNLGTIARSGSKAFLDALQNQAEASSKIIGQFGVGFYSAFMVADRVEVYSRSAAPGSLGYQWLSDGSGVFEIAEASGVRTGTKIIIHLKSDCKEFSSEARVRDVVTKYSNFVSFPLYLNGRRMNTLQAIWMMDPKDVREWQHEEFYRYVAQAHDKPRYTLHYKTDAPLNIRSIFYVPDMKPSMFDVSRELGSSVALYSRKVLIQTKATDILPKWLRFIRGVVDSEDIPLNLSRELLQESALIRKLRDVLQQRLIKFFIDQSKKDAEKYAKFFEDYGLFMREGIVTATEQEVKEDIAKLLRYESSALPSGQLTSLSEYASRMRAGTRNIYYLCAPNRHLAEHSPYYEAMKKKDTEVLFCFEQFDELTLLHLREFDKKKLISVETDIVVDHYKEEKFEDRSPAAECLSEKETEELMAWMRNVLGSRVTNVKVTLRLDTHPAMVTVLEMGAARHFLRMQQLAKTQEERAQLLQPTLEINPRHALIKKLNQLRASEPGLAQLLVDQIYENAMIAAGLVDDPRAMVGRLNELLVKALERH
Assay: ADP Glo assay of TRAP1 ATPase activity
Type: biochemical
Conditions: for EC50: TRAP1 ATPase activation, 150 nM Trap1, 20 μM ATP, geometric mean, read-out: ADP GLO DRC: GeoMean EC50; for Emax: read-out: ADP GLO DRC: Mean Emax
Experimental: Potency of test compounds to modulate the ATPase activity of TRAP1 enzyme was evaluated using ADP Glo assay. The assay is based on quantification of the ADP generated from ATP in the ATPase reaction. The assay is performed in two steps: first, after the ATPase reaction, an equal volume of ADP-Glo™ Reagent is added to terminate the ATPase reaction and deplete the remaining ATP. Second, the Kinase Detection Reagent is added to simultaneously convert ADP to ATP and allow the newly synthesized ATP to be measured using a luciferase/luciferin reaction.
All the assays were carried out in a 384-well Proxiplate. The buffer used was 25 mM Pipes pH-7.5, 40 mM KCl, 0.05 mM MgCl2, 0.025% BSA, 0.316 mM EGTA, 0.003% Empigen, 0.01% Igepal. 150 nM Trap1 enzyme was incubated with various concentrations of the test compound (0.79 μM-100 μM) at 37° C. for 30 mins (except in blank wells). 20 μM ATP was added to each well to start the reaction. The plate was spun for 1 min at 1200 rpm and then incubated at 37° C. for 60 mins. 5 μl of ADP Glo reagent was added to all the wells and spun the plate for 1 min at 1200 rpm and kept it on a shaker at ambient temperature for 60 mins. 10 μl of kinase detection mix was added to all the wells and the plate was read for Luminescence at 495 nm. The amount of ADP released was estimated from ATP/ADP standard curve generated at the same experimental conditions. Emax (Maximal percent activation) and EC50 (concentration for half maximal activation) were estimated by fitting the dose response data to a sigmoidal curve fitting equation using Graphpad Prism software V. 8.

Row | Compound | EC50 | Emax
1 | Cn1c(=O)n(C)c2cc(C(=O)Nc3ccc(F)c(S(=O)(=O)Nc4ccc(Cl)cc4)c3)ccc21 [Compound 1261] | 20 to 100 µM | 123 to 159%
2 | COc1ccc(NC(=O)c2coc(-c3cc(F)c(F)c(F)c3)n2)cc1S(=O)(=O)Nc1c(C)csc1C [Compound 2415] | < 10 µM | 123 to 159%
3 | COc1ccc(NC(=O)c2cccc(-c3cnco3)c2)cc1S(=O)(=O)Nc1c(C)cccc1C [Compound 1218] | 10 to 20 µM | 160 to 199%
4 | COc1ccc(NC(=O)c2cn(Cc3ccccc3)nn2)cc1S(=O)(=O)Nc1c(C)cccc1C [Compound 1265] | < 10 µM | 200 to 300%
5 | COc1ccc(NC(=O)c2ccc3nsnc3c2)cc1S(=O)(=O)Nc1c(C)cccc1C [Compound 1240] | 10 to 20 µM | 200 to 300%
6 | COc1ccccc1-c1nc(C(=O)Nc2ccc(OC)c(S(=O)(=O)Nc3ccc(Br)cc3)c2)c[nH]1 [Compound 1181] | < 10 µM | 160 to 199%
7 | COc1ccc(NC(=O)c2cnc3ccccc3c2)cc1S(=O)(=O)Nc1c(C)cccc1C [Compound 1330] | < 10 µM | 200 to 300%
8 | COc1ccc(NC(=O)c2ccnn2C(C)C)cc1S(=O)(=O)Nc1c(C)cccc1C [Compound 1104] | 10 to 20 µM | 200 to 300%
9 | COc1ccc(NC(=O)c2cccc(N3CCCC3=O)c2)cc1S(=O)(=O)Nc1c(C)cccc1C [Compound 1123] | 10 to 20 µM | 200 to 300%
10 | CCc1ccnc(C(=O)Nc2ccc(OC)c(S(=O)(=O)Nc3c(C)cccc3C)c2)c1 [Compound 1151] | < 10 µM | 200 to 300%
11 | COc1ccc(NC(=O)c2cc3c(C)nn(C)c3s2)cc1S(=O)(=O)Nc1c(C)cccc1C [Compound 1252] | < 10 µM | 200 to 300%
12 | COc1ccc(NC(=O)c2cc(C)n(C)c2)cc1S(=O)(=O)Nc1c(C)cccc1C [Compound 1009] | 20 to 100 µM | 160 to 199%
13 | COc1ccc(NC(=O)c2ccc3c(Br)nn(C)c3c2)cc1S(=O)(=O)Nc1c(C)cccc1C [Compound 1024] | < 10 µM | 200 to 300%
14 | COc1ccc(NC(=O)c2ccc(-c3ccccn3)s2)cc1S(=O)(=O)Nc1c(C)cccc1C [Compound 1152] | < 10 µM | 160 to 199%
15 | Cc1nc2cccc(C(=O)Nc3ccc(F)c(S(=O)(=O)Nc4ccc(Cl)cc4)c3)c2s1 [Compound 1268] | 20 to 100 µM | 123 to 159%
16 | COc1ccc(NC(=O)c2cnc(-c3ccccc3)[nH]2)cc1S(=O)(=O)Nc1c(C)cccc1C [Compound 408] | < 10 µM | 200 to 300%
17 | COc1ccc(NC(=O)c2ccc(Cl)nc2C)cc1S(=O)(=O)Nc1c(C)cccc1C [Compound 1057] | 20 to 100 µM | 160 to 199%
18 | COc1ccc(NC(=O)c2cccc(C#N)c2Cl)cc1S(=O)(=O)Nc1c(C)cccc1C [Compound 1100] | 10 to 20 µM | 200 to 300%
19 | COc1ccc(NC(=O)c2cn(C)nc2C(F)F)cc1S(=O)(=O)Nc1c(C)cccc1C [Compound 1074] | 20 to 100 µM | 160 to 199%
20 | CCS(=O)(=O)c1ccc(OC)c(C(=O)Nc2ccc(OC)c(S(=O)(=O)Nc3c(C)cccc3C)c2)c1 [Compound 1254] | 20 to 100 µM | 160 to 199%
21 | CCOc1ccsc1C(=O)Nc1ccc(F)c(S(=O)(=O)Nc2ccc(Cl)cc2)c1 [Compound 765] | 20 to 100 µM | 123 to 159%
22 | O=C(Nc1ccc(F)c(S(=O)(=O)Nc2ccc(Cl)cc2)c1)c1cccc2cnccc12 [Compound 773] | 10 to 20 µM | 123 to 159%
23 | COc1ccc(NC(=O)c2cc(C3CC3)on2)cc1S(=O)(=O)Nc1c(C)cccc1C [Compound 1031] | 10 to 20 µM | 200 to 300%
24 | COc1ccc(NC(=O)c2ccc(-c3ccc(F)cc3)cc2F)cc1S(=O)(=O)Nc1c(C)cccc1C [Compound 1142] | < 10 µM | 123 to 159%
25 | COc1ccc(NC(=O)c2ccc3sc(C)nc3c2)cc1S(=O)(=O)Nc1c(C)cccc1C [Compound 1269] | 10 to 20 µM | 160 to 199%

Row | Compound | EC50 | Emax
26 | O=C(Nc1ccc(F)c(S(=O)(=O)Nc2ccc(Cl)cc2)c1)c1cccc(-c2cncnc2)c1 [Compound 690] | < 10 µM | 160 to 199%
27 | COc1ccc(NC(=O)c2noc3c2CCCC3)cc1S(=O)(=O)Nc1c(C)cccc1C [Compound 1114] | 10 to 20 µM | 200 to 300%
28 | COc1ccc(NC(=O)c2csc(-c3cccs3)n2)cc1S(=O)(=O)Nc1c(C)cccc1C [Compound 1136] | < 10 µM | 160 to 199%
29 | CCCN1CCN(c2ccc(C(=O)Nc3ccc(OC)c(S(=O)(=O)Nc4c(C)cccc4C)c3)cc2)CC1 [Compound 1174] | < 10 µM | 160 to 199%
30 | Cc1nccc(C(F)(F)F)c1C(=O)Nc1ccc(F)c(S(=O)(=O)Nc2ccc(Cl)cc2)c1 [Compound 734] | 10 to 20 µM | 123 to 159%
31 | COc1ccc(NC(=O)c2ccc(S(=O)(=O)N(C)C)cc2)cc1S(=O)(=O)Nc1c(C)cccc1C [Compound 1120] | 20 to 100 µM | 160 to 199%
32 | CCCn1cc(C(=O)Nc2ccc(F)c(S(=O)(=O)Nc3ccc(Cl)cc3)c2)cn1 [Compound 683] | 20 to 100 µM | 200 to 300%
33 | COc1ccc(NC(=O)c2nc3c(C)cccc3s2)cc1S(=O)(=O)Nc1c(C)cccc1C [Compound 1125] | < 10 µM | 160 to 199%
34 | COc1ccc(NC(=O)c2ncc(-c3ccccc3)o2)cc1S(=O)(=O)Nc1sc(C)c(C)c1C#N [Compound 1672] | 10 to 20 µM | 160 to 199%
35 | COc1ccc(NC(=O)c2cnoc2C2CC2)cc1S(=O)(=O)Nc1c(C)cccc1C [Compound 1160] | 20 to 100 µM | 160 to 199%
36 | COc1ccc(-c2noc(C)c2C(=O)Nc2ccc(F)c(S(=O)(=O)Nc3ccc(Cl)cc3)c2)cc1 [Compound 838] | 10 to 20 µM | 123 to 159%
37 | CCc1ccc(NC(=O)c2cnn(-c3ccc(Cl)cc3)c2C)cc1S(=O)(=O)Nc1ccc(Cl)cc1 [Compound 1335] | 20 to 100 µM | 123 to 159%
38 | COc1ccc(NC(=O)c2cccc3ncccc23)cc1S(=O)(=O)Nc1c(C)cccc1C [Compound 1219] | 20 to 100 µM | 160 to 199%
39 | COc1ccc(NC(=O)c2cccnc2-c2ccccc2C)cc1S(=O)(=O)Nc1c(C)cccc1C [Compound 1053] | 20 to 100 µM | 160 to 199%
40 | COc1ccc(NC(=O)c2cc(C#N)ccc2Br)cc1S(=O)(=O)Nc1c(C)cccc1C [Compound 1141] | 20 to 100 µM | 160 to 199%
41 | COc1ccc(NC(=O)c2cccc(-n3nc(C)cc3C)c2)cc1S(=O)(=O)Nc1c(C)cccc1C [Compound 1249] | 10 to 20 µM | 160 to 199%
42 | O=C(Nc1ccc(F)c(S(=O)(=O)Nc2ccc(Cl)cc2)c1)c1cnc(Cl)cc1Cl [Compound 815] | 10 to 20 µM | 123 to 159%
43 | COc1ccc(NC(=O)c2cc(-c3ccnn3C)c(Cl)s2)cc1S(=O)(=O)Nc1c(C)cccc1C [Compound 1079] | < 10 µM | 160 to 199%
44 | O=C(c1ccccc1)c1cccnc1C(=O)Nc1ccc(F)c(S(=O)(=O)Nc2ccc(Cl)cc2)c1 [Compound 836] | 20 to 100 µM | 200 to 300%
45 | COc1ccc(NC(=O)c2cccc([C@H](F)c3cccc(F)c3)c2)cc1S(=O)(=O)Nc1c(C)cccc1C [Compound 1034] | < 10 µM | 160 to 199%
46 | COc1ccc(NC(=O)c2cnc(-c3ccccc3)[nH]2)cc1S(=O)(=O)Nc1c(C)cc(Cl)cc1C [Compound 443] | < 10 µM | 160 to 199%
47 | COc1ccc(NC(=O)c2ccc(-n3cccn3)cc2Cl)cc1S(=O)(=O)Nc1c(C)cccc1C [Compound 1019] | < 10 µM | 160 to 199%
48 | COc1ccc(NC(=O)c2cnc(OC)c(C(F)(F)F)c2)cc1S(=O)(=O)Nc1c(C)cccc1C [Compound 1073] | < 10 µM | 123 to 159%
49 | COc1ccc(NC(=O)c2ccc3c(c2)CCN3C)cc1S(=O)(=O)Nc1c(C)cccc1C [Compound 1008] | 20 to 100 µM | 123 to 159%
50 | COc1ccc(NC(=O)c2cccc(-c3ccnn3C)c2)cc1S(=O)(=O)Nc1c(C)cccc1C [Compound 1242] | < 10 µM | > 300%
